{"source": "patent US20250313860A1", "about": "“EXPRESSION OF EXOGENOUS PROTEINS IN DONOR PLATELETS TREATED WITH LIPID NANOPARTICLES” (THE UNIVERSITY OF BRITISH COLUMBIA, priority 2022, published 2025)", "key": {"human platelets": {"system": "human platelets", "assay": "Platelet responsiveness to agonists ADP and thrombin (CD62P flow cytometry)", "type": "cell-based", "conditions": "transfected and control untreated platelets, FIG. 3A", "procedure": "(§1) Platelets untreated or treated with CL4H6 POPC LNP were activated after 2 h with 0.1 U mL-1 thrombin from human plasma (MilliporeSigma Canada Ltd, Oakville, ON) or 10 μM Chrono-Par® ADP reagent (Chrono-Log, Havertown, PA) in Tyrode's-HEPES buffer pH 7.4 (134 mM NaCl, 2.9 mM KCl, 0.34 mM NaH2PO4, 10 mM HEPES, 5 mM D-glucose). After 4 h LNP treatment, platelets were collected for flow cytometry and the remaining sample was centrifuged at 250×g for 10 min, with the pellet and supernatant fractions collected for luciferase assay.\nPlatelet responsiveness to agonists ADP or thrombin was measured by flow cytometry staining using PE-conjugated mouse anti-human CD62P labeling, as described in the Materials and Methods."}, "[1]": {"system": "platelets transfected with mRNA-LNP", "assay": "Intracellular and extracellular NanoLuc after agonist activation of transfected platelets", "type": "cell-based, human", "conditions": "after agonist stimulation of transfected platelets; for intracellular NanoLuc level (cell pellet): FIG. 4D; for extracellular NanoLuc level (supernatant): FIG. 4E", "procedure": "as §1\nPlatelets were transfected with mRNA-LNP encoding NanoLuc, followed by activation with agonists ADP or thrombin. Intracellular and extracellular protein was separated by centrifugation, and enzymatic activity assays were used to measure exogenous protein levels in both fractions as described in the Materials and Methods."}, "[2]": {"system": "platelets transfected with mRNA-LNP", "assay": "Cycloheximide treatment of mRNA-LNP transfected platelets", "type": "cell-based, human", "source_text": "Platelets were transfected with mRNA encoding nanoluciferase (NanoLuc) encapsulated in LNP formulation using ALC0315 and DOPC immediately preceding treatment with cycloheximide, followed by enzymatic assays of nanoluciferase activity, and activation by flow cytometry using PE-conjugated mouse anti-human CD62P labeling, as described in the Materials and Methods."}}}
{"molecule": "Nc1ncnc2c1ncn2[C@@H]1O[C@H](COP(=O)(O)OP(=O)(O)O)[C@@H](O)[C@H]1O", "note": "[ADP]", "values": [{"measurement": "increase of CD62P levels by agonist", "setting": "human platelets", "value": "mildly"}, {"measurement": "intracellular NanoLuc level (cell pellet)", "setting": "[1]", "value": "unchanged"}, {"measurement": "extracellular NanoLuc level (supernatant)", "setting": "[1]", "value": "unchanged"}]}
{"molecule": "C[C@@H]1C[C@@H]([C@H](O)CC2CC(=O)NC(=O)C2)C(=O)[C@@H](C)C1", "note": "[cycloheximide]", "values": [{"measurement": "exogenous protein synthesis in transfected platelets", "setting": "[2]; LNP with ALC0315 and DOPC, FIG. 5A", "value": "inhibited"}, {"measurement": "mRNA-LNP uptake in transfected platelets", "setting": "[2]; presence or absence of cycloheximide, FIG. 5B", "value": "no statistically significant effect"}]}
{"molecule": "thrombin", "values": [{"measurement": "increase of CD62P levels by agonist", "setting": "human platelets", "value": "substantially"}, {"measurement": "intracellular NanoLuc level (cell pellet)", "setting": "[1]", "value": "decreased"}, {"measurement": "extracellular NanoLuc level (supernatant)", "setting": "[1]", "value": "decreased"}]}
